{"source": "patent US20060046972A1", "about": "“Cytotoxic nucleoside analog compound 003 for treating cancer” (Parker Hughes Institute, priority 2004, published 2006)", "key": {"MOLT-3, human T lymphoma": {"tested_on": "MOLT-3, human T lymphoma", "assay": "DNA flow cytometry of cell cycle arrest, MOLT-3", "format": "cell-based", "details": "100 μM, 48 hour", "description": "(§1) Exponentially growing tumor cells were cultured at 1×10^6 cells/ml in clonogenic medium (RPMI 1640 medium +1% penicillin/streptomycin +10% heat-inactivated fetal bovine serum, 2 mML-glutamine, and 10 mM Hepes buffer) in the presence or absence of 100 μM compound 003 for 48 hour at 37° C., 5% CO2. At 48 h, cells were washed two times in fresh clonogenic medium, trypsinized, fixed in ice cold ethanol and labeled with propidium iodide to quantify their DNA content, as described previously (See, for example, Navara, et al., 2001, Anticancer Drugs. 12:369). Quantitative DNA analysis was performed on a Becton Dickenson Calibur flow cytometer equipped with a Consort 40 computer using the COTFIT program, which includes CELLCY, a cell cycle distribution function that fits DNA content histograms and calculates-the percentages of cells in G, S, and GM phases of the cell cycle, as described, for example, in Uckun et al., 1996, J Biol Chem. 271, 6389."}, "[1]": {"tested_on": "PC-3 prostate cancer cells", "assay": "Confocal laser scanning microscopy of mitotic spindle, PC-3", "format": "cell-based, human", "details": "100 μM", "description": "(§2) Immunofluorenscence was used to examine the spindle features of human cancer cell lines treated with Compound 003 or 0.5% DMSO. Initially, cells at log phase were seeded onto sterile 22 mm coverslips in six -well culture plates. 24 hours later, the cells were treated with compound 003 for 2 hours at 37° C., 5% C02, fixed in methanol (−20° C. 15 min) followed by a 15 minute incubation with PBS +0.1.% Tx-100. The coverslips were incubated with antibodies raised against α-tubulin, γ-tubulin (Sigma Chemical Co., St Louis, Mo.) (40 min 37° C.), washed in PBS-Tx-100, and incubated with an appropriate secondary antibody conjugated to FITC (Jackson ImmunoResearch, Westgrove, Pa.). Cellular DNA was labeled with 5 μM TOTO3 (Molecular Probes, Eugene, Oreg.) for 20 minutes. Coverslips were immediately inverted onto slides in Vectashield (Vector Labs, Burlingame, Calif.) to prevent photobleaching, sealed with nail varnish and stored at −20° C. The slides were examined using a Bio-Rad MRC-1024 Laser Scanning Confocal Microscope equipped with a Kr/Ar laser (BioRad, Hercules, Calif.) mounted on a Nikon Eclipse E800 upright microscope with high numerical aperture objectives (Nikon, Melville, N.Y.). Digital data were processed using Lasersharp (BioRad) and Adobe Photoshop software (Adobe Systems, Mountain View, Calif.). […]"}, "[2]": {"assay": "Stability in simulated gastric fluid", "format": "in vitro ADME", "description": "Plasma samples, simulated gastric fluid and intestinal fluids (United State Pharmacopeia XXII methods) were separately spiked with COMPOUND 003 to yield final concentrations of 500 μM. Spiked samples were incubated at 37° C. At a predetermined time (5, 10, 15, 30 60 and 120 minutes), an aliquot (200 μl) of the spiked plasma sample was extracted as described above."}, "[3]": {"tested_on": "MMTV/Neu transgenic mice (spontaneous breast cancer)", "assay": "Murine model of Her2 positive breast cancer, virgin MMTV/Neu transgenic mice", "format": "in vivo", "description": "Overexpression of the wild type Neu in the mammary glands of transgenic mice induces metastatic breast cancer. Accordingly, in the MMTV/Neu transgenic strain, the wild-type neu is overexpressed in the mammary gland under the control of the MMTV long terminal repeat. This animal model has been used to analyze the Her2/neu overexpression in breast epithelia, as well as the efficacy of new therapeutic approaches to prevent or treat Her2/neu overexpressing malignancies.\nMMTV/Neu transgenic mice were treated with Compound 003 that was added to the daily food of the mice at an average daily dose level of 50 mg/kg/day for the duration of the experiment. Mice were screened for the tumor formation every other day. Tumor-free survival was analyzed using life table statistics as previously reported. The protective anti-cancer activity of Compound 003 was evaluated according to the rise of the survival rate and prolongation of the tumor-free survival of the experimental animals as compared with the control animals. Statistical Significance was determined using the Kaplan Meier Log-Rank test.\nNeu transgenic mice were mated to FVB non-transgenic mice, and heterozygous neu transgenic offspring were identified by PCR analysis. A total of 62 female neu transgenic mice were identified from the offspring. These transgenic mice were used to examine the effects of a nontoxic dose level of Compound 003 (50 mg/kg/day) on spontaneous breast cancer development in two independent experiments.\nIn the first experiment, 30 virgin transgenic mice were used. Treatments were initiated when female mice were 6 weeks of age. Fifteen of the 15 vehicle treated control transgenic mice developed breast cancer with a median cancer-free survival time of 224 days (Mean=253±23 days) (FIG. 7, FIG. 8A&B). At 340 days, only 20% of the mice were tumor-free and by 480 days all had developed breast cancer. The mammary gland tumors were excised, paraffin-embedded and sectioned for H+E staining. A representative tumor section from a neu transgenic mouse is shown in panel C of FIG. 8. […]"}, "DT40, chicken B lymphoma": {"tested_on": "DT40, chicken B lymphoma", "assay": "DNA flow cytometry of cell cycle arrest, DT40", "format": "cell-based", "details": "100 μM, 48 hour", "description": "as §1"}, "U373 glioblastoma cells": {"tested_on": "U373 glioblastoma cells", "assay": "Confocal laser scanning microscopy of mitotic spindle, U373", "format": "cell-based, human", "details": "100 μM", "description": "as §2"}, "[4]": {"tested_on": "human T leukemia/lymphoma (JURKAT)", "assay": "DNA flow cytometry of cell cycle arrest, JURKAT", "format": "cell-based", "details": "100 μM, 48 hour", "description": "as §1"}, "[5]": {"tested_on": "DAUDI, human Burkitt's lymphoma", "assay": "DNA flow cytometry of cell cycle arrest, DAUDI", "format": "cell-based", "details": "100 μM, 48 hour", "description": "as §1"}}, "data": [{"compound": "COC(=O)C(C)NP(=O)(OCC1OC(n2cc(C)c(=O)[nH]c2=O)CC1N=[N+]=[N-])Oc1ccc(OC)cc1", "note": "(centres unmarked) [Compound 003, 3′-azidothymidine 5′-[p-methoxyphenylmethoxyalaninyl phosphate]]", "values": [{"measurement": "cell cycle arrest", "setting": "MOLT-3, human T lymphoma", "value": "caused G2 arrest"}, {"measurement": "mitotic spindle formation", "setting": "[1]", "value": "induced aberrant multipolar spindle formation"}, {"measurement": "decomposition product", "setting": "[2]; gastric fluid", "value": "quickly decomposed to yield a intermediate product"}, {"measurement": "stability", "setting": "[2]; simulated gastric fluid, 500 μM, 37° C.", "value": "unstable"}, {"measurement": "median cancer-free survival", "setting": "[3]; 50 mg/kg/day in food, vehicle 224 days, P=0.0007", "value": 455, "unit": "days"}, {"measurement": "proportion of mice cancer-free", "setting": "[3]; 50 mg/kg/day, at 340 days, vehicle 20±10%", "value": "93±7", "unit": "%"}, {"measurement": "proportion of mice still cancer-free", "setting": "[3]; 50 mg/kg/day, at 480 days, when all vehicle mice had breast cancer", "value": "one third"}, {"measurement": "cell cycle arrest", "setting": "DT40, chicken B lymphoma", "value": "caused G2 arrest"}, {"measurement": "mitotic spindle formation", "setting": "U373 glioblastoma cells", "value": "induced aberrant multipolar spindle formation"}, {"measurement": "cell cycle arrest", "setting": "[4]", "value": "G2M cell cycle arrest"}, {"measurement": "cell cycle arrest", "setting": "[5]", "value": "caused G2 arrest"}]}]}
